US20080107625A1, “Inhibitors of Hepatitis C Virus” (Bristol-Myers Squibb Company, priority 2006, published 2008)

For CC(C)(C)OC(=O)N[C@H]1CCCOC/C=C\[C@@H]2C[C@@]2(C(=O)NS(=O)(=O)C2CC2)NC(=O)[C@@H]2C[C@@H](OCc3ccccc3)CN2C1=O [Compound 5, (1S,4R,6S,14S,18R,7-cis)-18-benzyloxy-14-tert-butoxycarbonylamino-4-cyclopropanesulfonylaminocarbonyl-2,15-dioxo-3,16-diaza-10-oxatricyclo[14.3.0.04,6]nonadec-7-ene], the melting point was 147 to 149 °C.
